# Data reported in publication PMC9736157 (Molecules, 2022).
# Like-named read-outs stand apart in the source and are kept apart here.
# Experiments:
# A375 melanoma cell line = assay: Antiproliferative activity, CellTiter-Glo, A375; assay type: cell-based; conditions: Homo sapiens, A-375, A375, 72 h
# Description: Based on the previous preliminary tests, we sought to investigate the ability of synthesized compounds 5–15 and reference 1 in inhibiting the proliferation of BRAF^V600E mutant cancer cells. A first screening was conducted in A375 melanoma cell lines (Table 1, Figure S2). Encorafenib was employed for comparison.
# (§1) The ability of compounds 5, 10, 11, 15–selected based on their chemical diversity–to inhibit cell proliferation was then tested both in A375 and in Colo205 cancer cell lines. […] P5B was obtained by joining the BRAF inhibitor BI 882370 to pomalidomide through a five PEG unit spacer (Figure S3). In compound P5B, the linker length was of 17 atoms, the same length of the spacer used to generate our compound 10. A375 and Colo205 cells were treated for 72 h with compounds 5, 10, 11, 15, and P5B, and the antiproliferative activity was measured by a luminescent ATP-based assay, which determines the number of viable cells based on their metabolic activity. […] However, P5B was more efficient in inhibiting tumor cell viability in comparison with the other selected compounds.
# (§2) Cell viability was evaluated by means of CellTiter-Glo Luminescent Assay (Promega), which allows users to measure the ATP in the cell supernatant. The assay was performed according to manufacturer’s instructions. In brief, 4.10^3 A375 or Colo205 were seeded into 96-well plates and allowed to adhere at the wall overnight. Cells were treated for 72 h with BRAF inhibitor compounds. Then, 90 µL of the cell culture medium was transferred in a white 96-well plate, to which 10 µL of CellTiter-Glo was added before measurement of luminescence. Luminescence was measured by the SPARK M10 (Tecan, Männedorf, Switzerland) plate reader.
# Colo205 cell line = assay: Antiproliferative activity, CellTiter-Glo, Colo205; assay type: cell-based; conditions: Homo sapiens, COLO 205; Colo205, 72 h (Figure 6b); read-out: Antiproliferative activity IC50 (nM ± SEM)
# Description: as §1, §2
# B-RAF (V600E) = biological target: T1, B-RAF (V600E) (Homo sapiens, UniProt P15056, V600E); assay: BRAF^V600E inhibition assay (B-RAF (V600E) Kinase Assay Kit, Kinase-Glo MAX); assay type: biochemical; conditions: isolated BRAF^V600E, ATP 10 μM, 30 °C, 45 min; three experiments in duplicate; read-out: BRAF (V600E) Kinase Activity IC50 (nM ± SEM)
# T1 construct: purchased BPS Bioscience
# T1 sequence (P15056 whole entry V600E): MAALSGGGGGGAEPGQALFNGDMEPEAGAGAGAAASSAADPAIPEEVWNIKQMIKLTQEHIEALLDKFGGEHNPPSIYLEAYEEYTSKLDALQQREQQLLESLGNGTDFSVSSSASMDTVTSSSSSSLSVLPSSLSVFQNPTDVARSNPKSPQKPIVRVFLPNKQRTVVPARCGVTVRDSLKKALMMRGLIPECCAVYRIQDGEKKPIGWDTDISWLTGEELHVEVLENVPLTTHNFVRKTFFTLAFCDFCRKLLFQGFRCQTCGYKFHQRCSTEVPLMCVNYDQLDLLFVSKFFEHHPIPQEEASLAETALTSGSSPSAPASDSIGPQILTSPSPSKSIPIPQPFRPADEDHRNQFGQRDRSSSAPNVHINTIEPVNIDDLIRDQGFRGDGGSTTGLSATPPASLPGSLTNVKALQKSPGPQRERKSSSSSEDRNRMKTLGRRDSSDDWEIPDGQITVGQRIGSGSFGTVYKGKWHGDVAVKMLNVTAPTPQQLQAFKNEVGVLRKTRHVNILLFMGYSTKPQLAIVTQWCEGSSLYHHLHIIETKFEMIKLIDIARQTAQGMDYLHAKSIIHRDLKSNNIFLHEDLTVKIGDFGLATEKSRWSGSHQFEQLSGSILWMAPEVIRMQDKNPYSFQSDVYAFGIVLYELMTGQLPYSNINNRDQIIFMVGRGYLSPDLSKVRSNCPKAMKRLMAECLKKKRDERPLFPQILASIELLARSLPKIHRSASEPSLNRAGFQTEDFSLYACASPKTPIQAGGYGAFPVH
# Description: In a 96-well plate, the different inhibitor solutions in DMSO were mixed with Buffer, ATP (10 μM) and Raf substrate. […] After a 15 min delay to equilibrate plate temperature, 50 μL of Kinase-Glo Max was added in each well, and the luminescence was measured according to supplier’s instruction. The results, reported as IC50 ± S.E.M., were calculated with GrapPad Prism 7 and derive from three different experiments run in duplicate.
# BRAF^V600E [1] = tested on: T2, BRAF^V600E; assay: Western blot, BRAF^V600E degradation in A375; assay type: cell-based
# T2 construct: endogenous in cells; host or cells: A375 and Colo205 cell lines
# Description: (§3) Finally, we investigated the capability of the most antiproliferative compounds in interfering with BRAF pathway, favoring target degradation. To this end, Western blot analysis was conducted 24 h after incubation with 10 and 11 in both A375 and Colo205 cell lines. […] This observation was consistent with their ability to inhibit BRAF^V600E.
# (§4) To measure the capability of our compounds to interfere with BRAF pathway, pre-treated A375 and Colo205 cells were lysed. We then performed protein analysis through Western blot by using the following primary antibodies: anti-phospho ERK 1/2 (clone E10; dilution 1:1000; Cell Signaling Technology, Danvers, MA, USA) and anti-ERK (clone 137F5; dilution 1:1000; Cell Signaling Technology); anti-phospho MEK (clone S217/221; dilution 1:1000; Cell Signaling Technology); anti-MEK1,2 (clone 9122; dilution 1:1000; Cell Signaling Technology); anti-BRAF v600e (dilution 1:1000; Abcam, Cambridge, UK); and anti-total BRAF (dilution 1:1000; ThermoFisher, Waltham, MA, USA). Vinculin (clone E1E9B; dilution 1:1000; Cell Signaling Technology) was used as a loading control. The total protein amount was determined using the bicinchoninic acid (BCA) protein assay reagent (Thermo Scientific, Waltham, MA, USA). Equivalent amounts of protein were separated by SDS–PAGE on precast Bolt 4–12% Bis-Tris gel (Invitrogen, Carlsbad, CA, USA). Proteins were then transferred from gel to nitrocellulose with a Trans-Blot Turbo transfer system (Biorad, Hercules, CA, USA), probed with goat anti-rabbit IgG (H+L) secondary antibody, HRP conjugate (Invitrogen) or goat anti-mouse IgG (H+L) secondary antibody, HRP conjugate (Jackson ImmunoResearch Inc., Langcaster, PA, USA), and detected using enhanced chemiluminescence technique (Western Lightning Plus-ECL, Enhanced Chemiluminescence Substrate; Perkin Elmer, catalog # NEL105001EA, Waltham, MA, USA).
# [2] = tested on: phosphorylation of MEK and ERK; assay: Western blot, BRAF signaling in A375; assay type: cell-based; conditions: A375, 24 h incubation
# Description: as §3
# (§5) To measure the capability of our compounds to interfere with BRAF pathway, pre-treated A375 and Colo205 cells were lysed. […] The total protein amount was determined using the bicinchoninic acid (BCA) protein assay reagent (Thermo Scientific, Waltham, MA, USA). […] Proteins were then transferred from gel to nitrocellulose with a Trans-Blot Turbo transfer system (Biorad, Hercules, CA, USA), probed with goat anti-rabbit IgG (H+L) secondary antibody, HRP conjugate (Invitrogen) or goat anti-mouse IgG (H+L) secondary antibody, HRP conjugate (Jackson ImmunoResearch Inc., Langcaster, PA, USA), and detected using enhanced chemiluminescence technique (Western Lightning Plus-ECL, Enhanced Chemiluminescence Substrate; Perkin Elmer, catalog # NEL105001EA, Waltham, MA, USA).
# [3] = tested on: phosphorylation of MEK and ERK; assay: Western blot, BRAF signaling in Colo205; assay type: cell-based; conditions: Colo205, 24 h incubation
# Description: as §3, §5
# BRAF^V600E [4] = tested on: T2, BRAF^V600E; assay: Western blot, BRAF^V600E degradation in Colo205; assay type: cell-based
# Description: as §3, §4
# [5] = first screening (Table 1), read-out: Antiproliferative Activity IC50 ± SEM
# [6] = second set of experiments (Figure 6a), read-out: Antiproliferative activity IC50 (nM ± SEM)
SMILES,IC50 (A375 melanoma cell line; [5]) [nM],IC50 (B-RAF (V600E)) [nM],further results
"Cc1ncsc1-c1ccc(CNC(=O)[C@@H]2C[C@@H](O)CN2C(=O)[C@@H](NC(=O)COCCOCCOCCC(=O)N[C@@H](C)CNc2nccc(-c3cn(C(C)C)nc3-c3cc(Cl)cc(NS(C)(=O)=O)c3F)n2)C(C)(C)C)cc1 [Compound 15, (2S,4R)-1-((2S,17S)-2-(tert-butyl)-18-((4-(3-(5-chloro-2-fluoro-3-(methylsulfonamido)phenyl)-1-isopropyl-1H-pyrazol-4-yl)pyrimidin-2-yl)amino)-17-methyl-4,15-dioxo-6,9,12-trioxa-3,16-diazaoctadecanoyl)-4-hydroxy-N-(4-(4-methylthiazol-5-yl)benzyl)pyrrolidine-2-carboxamide]",3380 ± 172,78 ± 9,IC50 (A375 melanoma cell line; [6]): 3830 ± 784 nM; IC50 (Colo205 cell line): 1230 ± 543 nM
"CC(C)n1cc(-c2ccnc(NC[C@H](C)NC(=O)CCOCCOCCn3cc(COCCC(=O)Nc4cccc5c4C(=O)N(C4CCC(=O)NC4=O)C5=O)nn3)n2)c(-c2cc(Cl)cc(NS(C)(=O)=O)c2F)n1 (stereo partly drawn) [Compound 12, N-((S)-1-((4-(3-(5-chloro-2-fluoro-3-(methylsulfonamido)phenyl)-1-isopropyl-1H-pyrazol-4-yl)pyrimidin-2-yl)amino)propan-2-yl)-3-(2-(2-(4-((3-((2-(2,6-dioxopiperidin-3-yl)-1,3-dioxoisoindolin-4-yl)amino)-3-oxopropoxy)methyl)-1H-1,2,3-triazol-1-yl)ethoxy)ethoxy)propanamide]",732 ± 16,40 ± 4,
"CC(C)n1cc(-c2ccnc(NC[C@H](C)NC(=O)CCOCCOCCOCC(=O)Nc3cccc4c3CN(C3CCC(=O)NC3=O)C4=O)n2)c(-c2cc(Cl)cc(NS(C)(=O)=O)c2F)n1 (stereo partly drawn) [Compound 14, N-((S)-1-((4-(3-(5-chloro-2-fluoro-3-(methylsulfonamido)phenyl)-1-isopropyl-1H-pyrazol-4-yl)pyrimidin-2-yl)amino)propan-2-yl)-3-(2-(2-(2-((2-(2,6-dioxopiperidin-3-yl)-1-oxoisoindolin-4-yl)amino)-2-oxoethoxy)ethoxy)ethoxy)propenamide]",1046 ± 0.75,88 ± 17,
"CC(C)n1cc(-c2ccnc(NC[C@H](C)NC(=O)CCOCCNc3cccc4c3C(=O)N(C3CCC(=O)NC3=O)C4=O)n2)c(-c2cc(Cl)cc(NS(C)(=O)=O)c2F)n1 (stereo partly drawn) [Compound 6, N-((S)-1-((4-(3-(5-chloro-2-fluoro-3-(methylsulfonamido)phenyl)-1-isopropyl-1H-pyrazol-4-yl)pyrimidin-2-yl)amino)propan-2-yl)-3-(2-((2-(2,6-dioxopiperidin-3-yl)-1,3-dioxoisoindolin-4-yl)amino)ethoxy)propanamide]",406.1 ± 2.4,52 ± 12,
"CC(C)n1cc(-c2ccnc(NC[C@H](C)NC(=O)CCOCCOCCn3cc(CNc4cccc5c4C(=O)N(C4CCC(=O)NC4=O)C5=O)nn3)n2)c(-c2cc(Cl)cc(NS(C)(=O)=O)c2F)n1 (stereo partly drawn) [Compound 11, N-((S)-1-((4-(3-(5-chloro-2-fluoro-3-(methylsulfonamido)phenyl)-1-isopropyl-1H-pyrazol-4-yl)pyrimidin-2-yl)amino)propan-2-yl)-3-(2-(2-(4-(((2-(2,6-dioxopiperidin-3-yl)-1,3-dioxoisoindolin-4-yl)amino)methyl)-1H-1,2,3-triazol-1-yl)ethoxy)ethoxy)propanamide]",389 ± 15.1,43 ± 16,"BRAF^V600E degradation (BRAF^V600E [1]; A375, 24 h, 100–500 nM): not able to induce BRAF^V600E degradation; BRAF^V600E degradation at higher concentration (BRAF^V600E [1]; A375, up to 10 µM (Figure S4)): no degradation of the target protein; phosphorylation of MEK and ERK [2]: able to decrease phosphorylation of MEK and ERK; IC50 (A375 melanoma cell line; [6]): 417 ± 33 nM; phosphorylation of MEK and ERK [3]: able to decrease phosphorylation of MEK and ERK; BRAF^V600E degradation (BRAF^V600E [4]; Colo205, 24 h, 100–500 nM): not able to induce BRAF^V600E degradation; BRAF^V600E degradation at higher concentration (BRAF^V600E [4]; Colo205, up to 10 µM (Figure S4)): no degradation of the target protein; IC50 (Colo205 cell line): 104 ± 20 nM"
CC(C)n1cc(-c2ccnc(NC[C@H](C)NC(=O)CCOCCOCCn3cc(COCCOCCNc4cccc5c4C(=O)N(C4CCC(=O)NC4=O)C5=O)nn3)n2)c(-c2cc(Cl)cc(NS(C)(=O)=O)c2F)n1 (some centres unmarked) [Compound 13],4100 ± 71.5,58 ± 19,
"COCCOCCOCCOCCC(=O)N[C@@H](C)CNc1nccc(-c2cn(C(C)C)nc2-c2cc(Cl)cc(NS(C)(=O)=O)c2F)n1 [Compound 54, (S)-N-(1-((4-(3-(5-chloro-2-fluoro-3-(methylsulfonamido)phenyl)-1-isopropyl-1H-pyrazol-4-yl)pyrimidin-2-yl)amino)propan-2-yl)-2,5,8,11-tetraoxatetradecan-14-amide]",,80 ± 7,
"CC(C)n1cc(-c2ccnc(NC[C@H](C)NC(=O)CCCNc3cccc4c3C(=O)N(C3CCC(=O)NC3=O)C4=O)n2)c(-c2cc(Cl)cc(NS(C)(=O)=O)c2F)n1 (stereo partly drawn) [Compound 5, N-((S)-1-((4-(3-(5-chloro-2-fluoro-3-(methylsulfonamido)phenyl)-1-isopropyl-1H-pyrazol-4-yl)pyrimidin-2-yl)amino)propan-2-yl)-4-((2-(2,6-dioxopiperidin-3-yl)-1,3-dioxoisoindolin-4-yl)amino)butanamide]",2740 ± 71,61 ± 10,IC50 (A375 melanoma cell line; [6]): 1320 ± 304 nM; IC50 (Colo205 cell line): 280 ± 24 nM
"CC(C)n1cc(-c2ccnc(NC[C@H](C)NC(=O)CCOCCOCCNc3cccc4c3C(=O)N(C3CCC(=O)NC3=O)C4=O)n2)c(-c2cc(Cl)cc(NS(C)(=O)=O)c2F)n1 (stereo partly drawn) [Compound 7, N-((S)-1-((4-(3-(5-chloro-2-fluoro-3-(methylsulfonamido)phenyl)-1-isopropyl-1H-pyrazol-4-yl)pyrimidin-2-yl)amino)propan-2-yl)-3-(2-(2-((2-(2,6-dioxopiperidin-3-yl)-1,3-dioxoisoindolin-4-yl)amino)ethoxy)ethoxy)propanamide]",520 ± 80.5,66 ± 15,
"COC(=O)N[C@@H](C)CNc1nccc(-c2cn(C(C)C)nc2-c2cc(Cl)cc(NS(C)(=O)=O)c2F)n1 [encorafenib (1), encorafenib, reference compound]",< 50,,
"CC(C)n1cc(-c2ccnc(NC[C@H](C)NC(=O)CCOCCOCCOCCOCCNc3cccc4c3C(=O)N(C3CCC(=O)NC3=O)C4=O)n2)c(-c2cc(Cl)cc(NS(C)(=O)=O)c2F)n1 (stereo partly drawn) [Compound 9, N-((S)-1-((4-(3-(5-chloro-2-fluoro-3-(methylsulfonamido)phenyl)-1-isopropyl-1H-pyrazol-4-yl)pyrimidin-2-yl)amino)propan-2-yl)-1-((2-(2,6-dioxopiperidin-3-yl)-1,3-dioxoisoindolin-4-yl)amino)-3,6,9,12-tetraoxapentadecan-15-amide]",2000 ± 31.8,67 ± 16,
